Test results taken from ChEMBL document CHEMBL5465560, “Selectivity Literature for EUbOPEN Chemogenomic Library” (2024).
One block for each compound: values may come before it.

What was measured:
[1] = molecular target: Focal adhesion kinase 1 (Homo sapiens, UniProt Q05397); test: Selectivity interaction (Ambit KINOMEscan and KiNATiv profiling in Jurkat cells) EUB0000090b PTK2; assay type: cell-based; details: at 1 µM
[2] = molecular target: Ribosomal protein S6 kinase alpha-6 (Homo sapiens, UniProt Q9UK32); test: Selectivity interaction (Ambit KINOMEscan and KiNATiv profiling in Jurkat cells) EUB0000090b RPS6KA6; assay type: cell-based; details: at 1 µM
Sequence of Ribosomal protein S6 kinase alpha-6 (Q9UK32 whole entry): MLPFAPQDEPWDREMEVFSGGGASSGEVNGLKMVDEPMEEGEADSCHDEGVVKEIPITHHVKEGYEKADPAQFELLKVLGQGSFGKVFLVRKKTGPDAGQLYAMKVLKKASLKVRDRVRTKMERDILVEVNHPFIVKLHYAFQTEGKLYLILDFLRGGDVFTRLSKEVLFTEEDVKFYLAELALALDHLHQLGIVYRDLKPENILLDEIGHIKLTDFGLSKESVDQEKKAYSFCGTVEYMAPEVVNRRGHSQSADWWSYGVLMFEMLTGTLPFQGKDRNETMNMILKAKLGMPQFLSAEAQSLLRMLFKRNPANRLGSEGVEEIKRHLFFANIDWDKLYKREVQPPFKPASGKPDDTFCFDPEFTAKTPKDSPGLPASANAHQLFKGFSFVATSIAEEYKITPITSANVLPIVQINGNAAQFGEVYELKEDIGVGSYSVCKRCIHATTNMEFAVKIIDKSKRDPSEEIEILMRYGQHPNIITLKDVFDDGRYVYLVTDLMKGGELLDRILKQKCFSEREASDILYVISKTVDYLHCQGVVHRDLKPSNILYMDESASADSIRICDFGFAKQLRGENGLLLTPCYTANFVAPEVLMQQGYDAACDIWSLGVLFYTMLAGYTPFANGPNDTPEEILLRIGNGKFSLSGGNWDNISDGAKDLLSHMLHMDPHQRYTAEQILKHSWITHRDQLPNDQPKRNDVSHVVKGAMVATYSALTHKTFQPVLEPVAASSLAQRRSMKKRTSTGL

[3] = molecular target: Phosphatidylinositol 3-kinase catalytic subunit type 3 (Homo sapiens, UniProt Q8NEB9); test: Selectivity interaction (ActivX KiNativ screen (kinase selectivity in THP-1 cell lysates)) EUB0000639a PIK3C3; assay type: subcellular; details: lysate, at 0.2 µM
[4] = molecular target: Rho-associated protein kinase 1 (Homo sapiens) (UniProt Q13464); test: Selectivity interaction (ActivX KiNativ screen (kinase selectivity in THP-1 cell lysates)) EUB0000639a ROCK1; assay type: subcellular; details: lysate
Sequence of Rho-associated protein kinase 1 (Homo sapiens) (Q13464 2-1354 limits assumed): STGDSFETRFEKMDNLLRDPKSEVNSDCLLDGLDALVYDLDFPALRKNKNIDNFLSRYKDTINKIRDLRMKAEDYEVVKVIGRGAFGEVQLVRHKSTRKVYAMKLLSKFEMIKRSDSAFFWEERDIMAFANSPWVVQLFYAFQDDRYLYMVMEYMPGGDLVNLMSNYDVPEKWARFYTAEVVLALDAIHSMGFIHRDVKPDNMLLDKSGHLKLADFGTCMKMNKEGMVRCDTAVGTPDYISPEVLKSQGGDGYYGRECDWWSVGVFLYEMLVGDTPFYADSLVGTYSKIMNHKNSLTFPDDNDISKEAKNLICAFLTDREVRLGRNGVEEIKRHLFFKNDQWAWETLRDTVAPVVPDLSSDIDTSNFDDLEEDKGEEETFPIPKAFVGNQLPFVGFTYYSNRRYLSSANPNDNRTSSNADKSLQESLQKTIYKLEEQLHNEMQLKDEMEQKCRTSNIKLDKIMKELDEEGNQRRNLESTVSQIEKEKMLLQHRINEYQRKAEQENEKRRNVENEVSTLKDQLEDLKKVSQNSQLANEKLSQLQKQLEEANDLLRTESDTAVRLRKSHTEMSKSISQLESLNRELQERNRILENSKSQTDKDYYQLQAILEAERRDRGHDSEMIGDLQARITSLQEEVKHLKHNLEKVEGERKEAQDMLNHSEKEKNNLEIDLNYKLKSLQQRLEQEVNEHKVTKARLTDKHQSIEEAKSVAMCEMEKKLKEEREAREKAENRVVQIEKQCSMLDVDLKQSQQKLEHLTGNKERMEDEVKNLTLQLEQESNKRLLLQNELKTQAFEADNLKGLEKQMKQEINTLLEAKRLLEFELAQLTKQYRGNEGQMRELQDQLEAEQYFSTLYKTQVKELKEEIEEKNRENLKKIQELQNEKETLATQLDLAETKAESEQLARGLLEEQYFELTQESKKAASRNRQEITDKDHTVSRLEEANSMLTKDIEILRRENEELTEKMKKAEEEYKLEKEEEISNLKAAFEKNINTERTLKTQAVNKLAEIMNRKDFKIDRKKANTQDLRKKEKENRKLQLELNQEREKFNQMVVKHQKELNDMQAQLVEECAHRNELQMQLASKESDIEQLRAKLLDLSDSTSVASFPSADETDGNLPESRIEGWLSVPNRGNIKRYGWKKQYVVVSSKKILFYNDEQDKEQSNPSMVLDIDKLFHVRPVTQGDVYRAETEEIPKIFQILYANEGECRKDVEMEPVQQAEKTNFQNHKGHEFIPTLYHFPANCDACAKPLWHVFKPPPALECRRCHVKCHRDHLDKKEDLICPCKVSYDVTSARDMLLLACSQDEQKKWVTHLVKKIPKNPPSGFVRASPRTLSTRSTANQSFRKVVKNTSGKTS

[5] = molecular target: Maternal embryonic leucine zipper kinase (Homo sapiens) (UniProt Q14680); test: Selectivity interaction (Kinase panel (Z-LYTE Assay)) EUB0001632a MELK; details: at 10 µM
[6] = molecular target: T1, Phosphatidylinositol 3-kinase C2 domain-containing subunit gamma (Homo sapiens) (UniProt O75747); test: Selectivity interaction (KinomeScan (DiscoverX)) EUB0000695a PIK3C2G; details: at 100 nM
T1 sequence (whole entry): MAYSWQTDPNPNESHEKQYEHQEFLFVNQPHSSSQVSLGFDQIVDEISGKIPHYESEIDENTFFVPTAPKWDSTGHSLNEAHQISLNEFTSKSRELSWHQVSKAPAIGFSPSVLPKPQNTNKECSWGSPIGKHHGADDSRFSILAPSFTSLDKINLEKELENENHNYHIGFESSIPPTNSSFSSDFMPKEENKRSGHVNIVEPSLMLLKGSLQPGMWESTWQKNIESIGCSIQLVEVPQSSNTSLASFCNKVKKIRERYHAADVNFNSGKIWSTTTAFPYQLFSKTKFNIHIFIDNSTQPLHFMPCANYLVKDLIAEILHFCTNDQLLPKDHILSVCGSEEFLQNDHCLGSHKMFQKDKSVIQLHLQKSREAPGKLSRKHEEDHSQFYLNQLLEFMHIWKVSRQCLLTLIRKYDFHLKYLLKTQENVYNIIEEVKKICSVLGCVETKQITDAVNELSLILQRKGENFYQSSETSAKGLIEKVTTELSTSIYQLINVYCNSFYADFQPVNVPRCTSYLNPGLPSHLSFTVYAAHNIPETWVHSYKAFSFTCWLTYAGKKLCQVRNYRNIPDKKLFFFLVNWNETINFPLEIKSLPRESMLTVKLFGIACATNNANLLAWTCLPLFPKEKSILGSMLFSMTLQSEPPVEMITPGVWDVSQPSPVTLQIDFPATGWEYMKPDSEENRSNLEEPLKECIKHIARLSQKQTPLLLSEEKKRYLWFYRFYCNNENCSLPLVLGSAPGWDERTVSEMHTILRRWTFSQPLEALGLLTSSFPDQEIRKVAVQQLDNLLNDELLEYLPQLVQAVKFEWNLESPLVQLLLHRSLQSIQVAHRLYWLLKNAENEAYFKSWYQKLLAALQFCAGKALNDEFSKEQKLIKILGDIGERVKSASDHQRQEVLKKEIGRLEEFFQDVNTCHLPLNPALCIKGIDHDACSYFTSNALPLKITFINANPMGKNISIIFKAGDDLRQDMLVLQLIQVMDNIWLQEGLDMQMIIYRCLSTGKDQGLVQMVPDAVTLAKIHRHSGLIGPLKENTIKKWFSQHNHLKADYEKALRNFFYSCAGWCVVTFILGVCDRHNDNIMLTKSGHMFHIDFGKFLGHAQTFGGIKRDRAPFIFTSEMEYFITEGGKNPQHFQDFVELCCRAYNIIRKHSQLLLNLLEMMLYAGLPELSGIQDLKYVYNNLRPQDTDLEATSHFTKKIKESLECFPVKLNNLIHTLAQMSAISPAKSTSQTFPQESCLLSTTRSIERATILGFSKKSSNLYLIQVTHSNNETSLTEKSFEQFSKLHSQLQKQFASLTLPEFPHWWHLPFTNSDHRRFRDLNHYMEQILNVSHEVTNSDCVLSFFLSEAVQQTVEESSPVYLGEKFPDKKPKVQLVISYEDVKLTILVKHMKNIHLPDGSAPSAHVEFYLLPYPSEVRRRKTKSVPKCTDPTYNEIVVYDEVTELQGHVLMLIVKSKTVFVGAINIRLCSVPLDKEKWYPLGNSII

[7] = molecular target: Dual specificity mitogen-activated protein kinase kinase 1 (Homo sapiens, UniProt Q02750); details: at 10 µM
Sequence of Dual specificity mitogen-activated protein kinase kinase 1 (Q02750 whole entry): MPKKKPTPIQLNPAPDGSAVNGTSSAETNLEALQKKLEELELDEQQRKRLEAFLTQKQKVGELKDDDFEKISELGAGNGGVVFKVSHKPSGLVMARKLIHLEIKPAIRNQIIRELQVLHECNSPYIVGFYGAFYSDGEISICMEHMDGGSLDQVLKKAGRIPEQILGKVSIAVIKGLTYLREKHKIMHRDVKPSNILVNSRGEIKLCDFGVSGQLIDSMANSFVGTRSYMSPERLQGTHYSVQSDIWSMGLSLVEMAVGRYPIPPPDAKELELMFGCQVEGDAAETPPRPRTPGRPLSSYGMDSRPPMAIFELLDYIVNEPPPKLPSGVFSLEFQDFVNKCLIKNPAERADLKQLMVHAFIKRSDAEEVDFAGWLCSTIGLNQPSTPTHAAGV

[8] = molecular target: Tyrosine-protein kinase BTK (Homo sapiens, UniProt Q06187); test: Selectivity interaction (ProQinase) EUB0000171b BTK
Sequence of Tyrosine-protein kinase BTK (Q06187 whole entry): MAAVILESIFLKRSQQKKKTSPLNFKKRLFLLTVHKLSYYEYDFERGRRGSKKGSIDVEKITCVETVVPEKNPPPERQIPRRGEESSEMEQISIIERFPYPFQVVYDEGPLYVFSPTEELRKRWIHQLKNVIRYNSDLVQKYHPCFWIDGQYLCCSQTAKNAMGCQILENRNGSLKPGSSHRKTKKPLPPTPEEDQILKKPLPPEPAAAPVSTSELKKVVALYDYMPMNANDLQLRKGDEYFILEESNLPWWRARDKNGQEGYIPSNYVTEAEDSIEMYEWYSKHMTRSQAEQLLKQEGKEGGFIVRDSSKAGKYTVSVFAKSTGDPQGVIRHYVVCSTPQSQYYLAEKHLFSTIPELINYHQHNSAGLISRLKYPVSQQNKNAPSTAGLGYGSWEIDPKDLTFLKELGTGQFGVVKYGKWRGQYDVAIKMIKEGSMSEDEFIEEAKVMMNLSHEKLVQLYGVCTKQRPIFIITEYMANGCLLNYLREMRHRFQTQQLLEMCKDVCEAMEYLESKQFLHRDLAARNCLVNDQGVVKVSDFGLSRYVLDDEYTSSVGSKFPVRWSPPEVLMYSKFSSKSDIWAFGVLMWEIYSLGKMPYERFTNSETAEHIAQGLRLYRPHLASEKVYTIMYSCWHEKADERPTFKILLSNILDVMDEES

[9] = molecular target: Ribosomal protein S6 kinase alpha-1 (Homo sapiens, UniProt Q15418); test: Selectivity interaction (Upstate Kinase Profiler service (Millipore)) EUB0000056c RPS6KA1; details: at 1 µM
[10] = molecular target: Casein kinase I isoform gamma-2 (Homo sapiens) (UniProt P78368); test: Selectivity interaction (KinomeScan (DiscoverX)) EUB0000655a CSNK1G2; details: at 10 µM
[11] = molecular target: Myosin light chain kinase 2, skeletal/cardiac muscle (Homo sapiens) (UniProt Q9H1R3); test: Selectivity interaction (KinomeScan (DiscoverX)) EUB0000618a MYLK2; details: at 10 µM
[12] = molecular target: Activin receptor type-2B (Homo sapiens) (UniProt Q13705); test: Selectivity interaction (KinomeScan (DiscoverX)) EUB0000607a ACVR2B; details: at 10 µM
Sequence of Activin receptor type-2B (Homo sapiens) (Q13705 whole entry): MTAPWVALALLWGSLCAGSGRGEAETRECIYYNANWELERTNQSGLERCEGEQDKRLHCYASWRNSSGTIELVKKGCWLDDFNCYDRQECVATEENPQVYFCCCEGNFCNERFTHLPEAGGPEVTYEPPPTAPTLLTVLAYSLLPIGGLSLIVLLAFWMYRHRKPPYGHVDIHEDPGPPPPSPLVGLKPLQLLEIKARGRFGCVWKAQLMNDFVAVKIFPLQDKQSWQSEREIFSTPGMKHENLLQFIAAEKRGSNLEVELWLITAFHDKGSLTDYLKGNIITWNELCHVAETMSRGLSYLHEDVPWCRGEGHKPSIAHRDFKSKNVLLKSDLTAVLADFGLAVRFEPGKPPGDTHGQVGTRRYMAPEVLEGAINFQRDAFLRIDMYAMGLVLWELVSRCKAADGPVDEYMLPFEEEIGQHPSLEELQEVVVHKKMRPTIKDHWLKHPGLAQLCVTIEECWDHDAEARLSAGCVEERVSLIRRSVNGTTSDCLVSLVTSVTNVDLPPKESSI

[13] = molecular target: Histone-lysine N-methyltransferase, H3 lysine-36 specific (Homo sapiens) (UniProt Q96L73); test: Selectivity interaction (Methyltransferase screen (Scintillation proximity assays)) EUB0000255b NSD1; details: at 1 µM
[14] = molecular target: Cyclin-dependent kinase 5 (Homo sapiens, UniProt Q00535); test: Selectivity interaction (KinomeScan (DiscoverX)) EUB0000666a CDK5; details: at 10 µM
Sequence of Cyclin-dependent kinase 5 (Q00535 whole entry, looked up): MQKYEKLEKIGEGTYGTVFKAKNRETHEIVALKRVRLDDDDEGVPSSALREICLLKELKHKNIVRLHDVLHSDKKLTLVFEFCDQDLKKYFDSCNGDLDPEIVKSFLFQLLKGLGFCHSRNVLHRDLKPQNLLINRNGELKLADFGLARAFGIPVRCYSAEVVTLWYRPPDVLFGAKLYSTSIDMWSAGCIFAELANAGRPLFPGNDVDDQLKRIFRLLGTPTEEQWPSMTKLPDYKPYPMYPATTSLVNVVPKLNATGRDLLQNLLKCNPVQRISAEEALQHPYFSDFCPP

Sequence of Focal adhesion kinase 1 (Q05397 2-1052 limits assumed): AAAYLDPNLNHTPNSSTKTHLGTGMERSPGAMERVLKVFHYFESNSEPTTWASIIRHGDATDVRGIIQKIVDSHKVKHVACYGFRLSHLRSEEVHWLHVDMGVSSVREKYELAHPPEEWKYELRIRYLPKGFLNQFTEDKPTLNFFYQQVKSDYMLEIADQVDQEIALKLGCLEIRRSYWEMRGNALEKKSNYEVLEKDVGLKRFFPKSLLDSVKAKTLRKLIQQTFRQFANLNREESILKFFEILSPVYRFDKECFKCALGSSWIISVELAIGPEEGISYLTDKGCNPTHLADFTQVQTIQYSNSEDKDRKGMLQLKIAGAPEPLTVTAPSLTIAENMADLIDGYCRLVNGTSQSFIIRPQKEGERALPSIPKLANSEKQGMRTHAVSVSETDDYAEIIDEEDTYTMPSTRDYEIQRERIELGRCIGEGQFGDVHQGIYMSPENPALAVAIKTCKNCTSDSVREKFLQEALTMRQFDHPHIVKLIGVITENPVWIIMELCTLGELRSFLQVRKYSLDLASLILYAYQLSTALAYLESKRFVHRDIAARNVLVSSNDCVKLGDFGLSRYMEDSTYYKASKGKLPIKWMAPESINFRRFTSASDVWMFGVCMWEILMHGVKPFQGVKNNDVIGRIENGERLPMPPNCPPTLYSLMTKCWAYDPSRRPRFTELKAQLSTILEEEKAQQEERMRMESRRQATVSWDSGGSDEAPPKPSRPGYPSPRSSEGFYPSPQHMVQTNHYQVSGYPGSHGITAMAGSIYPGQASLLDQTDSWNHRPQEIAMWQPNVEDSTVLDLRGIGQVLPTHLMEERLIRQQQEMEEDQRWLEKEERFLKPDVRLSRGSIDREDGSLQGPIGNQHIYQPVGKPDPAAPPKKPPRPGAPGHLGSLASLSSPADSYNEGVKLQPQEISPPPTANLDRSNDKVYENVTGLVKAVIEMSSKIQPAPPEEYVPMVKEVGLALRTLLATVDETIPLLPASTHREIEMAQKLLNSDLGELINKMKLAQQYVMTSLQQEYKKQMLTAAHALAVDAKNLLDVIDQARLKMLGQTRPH

Structure (SMILES): CN(C)C/C=C/C(=O)Nc1ccc(C(=O)N2CCCC(Nc3ncc(Cl)c(-c4c[nH]c5ccccc45)n3)C2)cc1 (centres undefined)
% of control [1]: 74%
% of control [2]: 92%

% of inhibition [3]: -20.4%
% of inhibition ([4]; at 0.01 µM): 12.6%
% of inhibition ([4]; at 0.04 µM): -4.3%
% of inhibition ([4]; at 0.2 µM): -10.6%
% of inhibition ([4]; at 1 µM): 18.3%
% of inhibition ([4]; at 5 µM): 53.9%
Structure (SMILES): CC[C@@H]1[C@H](F)C(=O)N[C@@H]1COc1nccc2cc(C(N)=O)c(OC)cc12 [ZIMLOVISERTIB]

% of control [5]: 26.9%
Structure (SMILES): Cn1cc(-n2cnc3c(NCc4nc5cc(Cl)c(Cl)cc5[nH]4)nc(N4CCOCC4)nc32)cn1

Structure (SMILES): Cc1cc(F)c(C(=O)Nc2cccc(-c3nncn3C(C)C)n2)cc1-n1cnc(C2CC2)c1
% of control [6]: 87%

% of control [7]: 100%
Structure (SMILES): CCN(CC)CCCCNc1ncc2cc(-c3cc(OC)cc(OC)c3)c(NC(=O)NC(C)(C)C)nc2n1

% of control ([8]; at 1 µM): 101%
% of control ([8]; at 5 µM): 87%
Structure (SMILES): C=CC(=O)Nc1cccc(C(=O)Nc2ccc(Nc3cc(-c4[nH]c(SC)nc4C)ccn3)cc2)c1

% of inhibition [9]: 17%
Structure (SMILES): Cc1ccc(-c2ccc3c(ccc4sc5c(c43)NC[C@@H](C)NC5=O)n2)cn1

Structure (SMILES): CN(C)CCOc1ccc(-c2nc(-c3ccncc3)c(-c3ccc4c(c3)CC/C4=N\O)[nH]2)cc1
% of control [10]: 72%

Structure (SMILES): O[C@H]1CC[C@H](Nc2ncc3nc(Nc4c(F)cc(F)cc4F)n([C@H]4CCOC4)c3n2)CC1
% of control [11]: 100%

Structure (SMILES): CNC(=O)Nc1ccc(-c2nc(N3CC4CCC(C3)O4)c3cnn(C4CCC5(CC4)OCCO5)c3n2)cc1
% of control [12]: 77%

Structure (SMILES): COCCN1CCC(c2cc(CN(C)C(=O)c3cccc(Oc4ccccc4)c3)ccn2)CC1
% activity [13]: 90%

Structure (SMILES): O=C(NOC[C@H](O)CO)c1ccc(F)c(F)c1Nc1ccc(I)cc1F
% of control [14]: 100%
